Experiment [1] concerns P. aeruginosa KW799/61. The experiment can be described thus: microbe, parasite or virus in culture. The following applies: for Diameter of growth inhibition zones: P. aeruginosa KW799/61. The class given is cell-based, Pseudomonas aeruginosa. Here is the method: All aqueous solutions and media were prepared using distilled, deionized, and filtered water (Millipore Milli-Q Advantage A10 Water Purification System). Luria broth (LB) was purchased from VWR. Mueller-Hinton No. 2 broth (MHII broth; cation adjusted) was purchased from Sigma-Aldrich (St. Louis, Mo.). Iron-deficient (—Fe) MHII broth was prepared by adding 0.8 mL of a 1 mg/mL sterile aq. solution of 2,2′-bipyridine to 49.2 mL of MHII broth. Iron-rich (+Fe) MHII broth was prepared by adding 0.8 mL of a 1 mg/mL sterile aq. solution of FeCl3 to 49.2 mL of MHII broth. Mueller-Hinton No. 2 agar (MHII agar; HiMedia Laboratories) was purchased from VWR. Iron-deficient (−Fe) MHII agar was prepared by adding 0.5 mL of a 1 mg/mL sterile aq. solution of 2,2′-bipyridine to 34 mL of melted MHII agar with gentle mixing. Iron-rich (+Fe) MHII agar was prepared by adding 0.5 mL of a 1 mg/mL sterile aq. solution of FeCl3 to 34 mL of melted MHII agar with gentle mixing.
(§1) Antibacterial Susceptibility Testing by the Agar Diffusion Assay.
Antibacterial activity of the compounds was determined by a modified Kirby-Bauer agar diffusion assay. Overnight cultures of test organisms were grown in LB broth for 18-24 h and standard suspensions of […] were prepared in saline solution (0.9% NaCl) according to a 0.5 BaSO4 McFarland Standard. This standardized suspension (0.1 mL) was added to 34 mL of sterile, melted agar (−Fe or +Fe) tempered to 47-50° C. […] Wells of 9.0 mm diameter were cut from the petri dish agar and filled with exactly 50 μL of the test sample solution. The petri dish was incubated at 37° C. for 18-24 h and the inhibition zone diameters were measured (mm) with an electronic caliper after 24 h.

The subject of experiment [2] is P. aeruginosa Pa6. The experiment can be described thus: Agar diffusion antibacterial susceptibility assay. The class given is cell-based, Pseudomonas aeruginosa. The following applies: for Diameter of growth inhibition zones: −Fe agar; for activity against clinical isolate Pa6 (agar diffusion, in words): even under iron-deficient conditions. The procedure:
(§2) All liquids and media were sterilized by autoclaving (121° C., 15 min) before use. All aqueous solutions and media were prepared using distilled, deionized, and filtered water (Millipore Milli-Q Advantage A10 Water Purification System). Luria broth (LB) was purchased from VWR. Mueller-Hinton No. 2 broth (MHII broth; cation adjusted) was purchased from Sigma-Aldrich (St. Louis, Mo.). Iron-deficient (—Fe) MHII broth was prepared by adding 0.8 mL of a 1 mg/mL sterile aq. solution of 2,2′-bipyridine to 49.2 mL of MHII broth. Iron-rich (+Fe) MHII broth was prepared by adding 0.8 mL of a 1 mg/mL sterile aq. solution of FeCl3 to 49.2 mL of MHII broth. Mueller-Hinton No. 2 agar (MHII agar; HiMedia Laboratories) was purchased from VWR. Iron-deficient (−Fe) MHII agar was prepared by adding 0.5 mL of a 1 mg/mL sterile aq. solution of 2,2′-bipyridine to 34 mL of melted MHII agar with gentle mixing. Iron-rich (+Fe) MHII agar was prepared by adding 0.5 mL of a 1 mg/mL sterile aq. solution of FeCl3 to 34 mL of melted MHII agar with gentle mixing. See also Wencewicz, T. A. Dissertation, University of Notre Dame, Notre Dame, Ind., 2011, for relevant techniques.
as §1
(§3) Antibacterial activity of the compounds was determined by a modified Kirby-Bauer agar diffusion assay. Overnight cultures of test organisms were grown in LB broth for 18-24 h and standard suspensions of […] were prepared in saline solution (0.9% NaCl) according to a 0.5 BaSO4 McFarland Standard. This standardized suspension (0.1 mL) was added to 34 mL of sterile, melted agar (−Fe or +Fe) tempered to 47-50° C. After gentle mixing, the inoculated agar media was poured into a sterile plastic petri dish (145 mm×20 mm) and allowed to solidify near a flame with the lid ajar for about 30 min. Wells of 9.0 mm diameter were cut from the petri dish agar and filled with exactly 50 μL of the test sample solution. The petri dish was incubated at 37° C. for 18-24 h and the inhibition zone diameters were measured (mm) with an electronic caliper after 24 h.
For orientation: A growth-free zone around the sample is the usual read-out of agar diffusion tests.

The subject of experiment [3] is P. aeruginosa PAO1. The experiment can be described thus: Agar diffusion antibacterial susceptibility assay. The class given is cell-based. The following applies: Pseudomonas aeruginosa, PAO1, 24 h, 37° C., read-out: Diameter of growth inhibition zones; for zone of inhibition at 200 µM: 50 μL of 0.2 mM solution; for zone of inhibition at 100 µM: 50 μL of 0.1 mM solution. The procedure:
as §2, §1, §3

For experiment [4], the system named is E. coli H1876 (fepA−, cir−, fiu−). The experiment can be described thus: Agar diffusion antibacterial susceptibility assay. The class given is cell-based, Escherichia coli. Conditions: for Diameter of growth inhibition zones: E. coli H1876 (fepA−, cir−, fiu−), −Fe agar, 37° C., 24 hours; for zone of inhibition at 200 µM: Escherichia coli, 24 h, read-out: Diameter of growth inhibition zones. Here is the method:
as §2, §1, §3

The subject of experiment [5] is collection of strains of P. aeruginosa. The experiment can be described thus: Agar well diffusion test (several strains). The class given is cell-based, Pseudomonas aeruginosa. The following applies: KW799/wt, PAO1, Pa4, and Pa6; Table 1. Here is the method:
Conjugates 10 and 11 were first evaluated for their antibacterial ability against a collection of strains of P. aeruginosa using the agar well diffusion test. The influence of iron concentration on antibacterial activity was probed as well by conducting assays in iron-rich and iron-deficient media.
as §2, §1, §3

Experiment [6] relates to various wild type strains of P. aeruginosa. The experiment can be described thus: MIC by broth microdilution (text summary over strains). The class given is cell-based. Conditions: Pseudomonas aeruginosa, iron-deficient medium, read-out: MICs against various wild type strains of P. aeruginosa. Here is the method:
as §2

In experiment [7] the test system is E. coli H1443 (fepA+, cir+, fiu+). The experiment can be described thus: Agar diffusion antibacterial susceptibility assay. The class given is cell-based. The following applies: Escherichia coli, 24 h, 37° C., read-out: Diameter of growth inhibition zones; for zone of inhibition at 100 µM: 50 μL of 0.1 mM solution; for zone of inhibition at 200 µM: 50 μL of 0.2 mM solution. The procedure:
as §2, §1, §3

Where [8] appears, read: Pseudomonas aeruginosa, KW799/61, 24 h, read-out: Diameter of growth inhibition zones, P. aeruginosa KW799/61, +Fe agar, 50 μL of 0.2 mM solution, 37° C., 24 hours.
Where [9] appears, read: Pseudomonas aeruginosa, KW799/61, 24 h, read-out: Diameter of growth inhibition zones, P. aeruginosa KW799/61, −Fe agar, 50 μL of 0.2 mM solution, 37° C., 24 hours.
Setting [10] is: P. aeruginosa Pa6, 50 μL of 0.2 mM solution, 37° C., 24 hours.
The mark [11] stands for this setting: Pseudomonas aeruginosa, P. aeruginosa Pa6, +Fe agar, 50 μL of 0.2 mM solution, 37° C., 24 hours, read-out: Diameter of growth inhibition zones.

Each structure is given as a SMILES string. In brackets after ≈: the same amount, converted by molar mass. Like-named read-outs stand apart in the source and are kept apart here.

Take `CC1(C)S[C@@H]2[C@H](NC(=O)[C@H](N)c3ccc(O)cc3)C(=O)N2[C@H]1C(=O)O` [Amoxicillin, reference compound]: the “activity against permeable mutant (large zones of inhibition, in words)” value in experiment [1] (P. aeruginosa permeable mutant K799/61) was “highly active”. Besides, the zone of inhibition at 200 µM in experiment [1] (setting [8]) stood at 42 mm; in experiment [1] (setting [9]), 39 mm; in experiment [2] (setting [11]), 0 mm; in experiment [3] (+Fe agar), 0 mm; in experiment [3] (−Fe agar), 0 mm; in experiment [4] it was 0 mm. Moreover, the “Diameter of growth inhibition zones” value in experiment [2] (setting [10]) and in experiment [4] (50 μL of 0.2 mM solution) was 0 mm in each case. In addition, the “activity against wild type strains of P. aeruginosa (agar diffusion, in words)” value in experiment [5] is “inactive or only weakly active”. Further, the MIC in experiment [6] is over 100 µM.

On to `CC1(C)S[C@@H]2[C@H](NC(=O)[C@H](N)c3ccccc3)C(=O)N2[C@H]1C(=O)O` [Ampicillin, reference compound], for which the zone of inhibition at 200 µM amounted to 40 mm in experiment [1] (setting [8]); 40 mm in experiment [1] (setting [9]); 0 mm in experiment [2] (setting [11]); 0 mm in experiment [3] (+Fe agar); 0 mm in experiment [3] (−Fe agar); 0 mm in experiment [4]. Also, the “Diameter of growth inhibition zones” value in experiment [2] (setting [10]) and in experiment [4] (50 μL of 0.2 mM solution) was 0 mm each time. In addition, in experiment [5], the “activity against wild type strains of P. aeruginosa (agar diffusion, in words)” value is “inactive or only weakly active”. Also, the MIC in experiment [6] was over 100 µM.

Take `CC(=O)Oc1cccc(C(=O)NCCCC(CCCNC(=O)c2cccc(OC(C)=O)c2OC(C)=O)(CCCNC(=O)c2cccc(OC(C)=O)c2OC(C)=O)NC(=O)CCC(=O)NC(C(=O)NC2C(=O)N3C2SC(C)(C)C3C(=O)O)c2ccccc2)c1OC(C)=O` (stereo not shown) [Compound 10]: the “Diameter of growth inhibition zones” value worked out at 13P in experiment [1] (+Fe agar, 50 μL of 0.1 mM solution, 37° C., 24 hours); 0 mm in experiment [2] (P. aeruginosa Pa6, 50 μL of 0.1 mM solution, 37° C., 24 hours); 0 mm in experiment [4] (50 μL of 0.1 mM solution). The zone of inhibition at 100 µM in experiment [1] (Pseudomonas aeruginosa, KW799/61, 24 h, read-out: Diameter of growth inhibition zones, P. aeruginosa KW799/61, −Fe agar, 50 μL of 0.1 mM solution, 37° C., 24 hours) came out at 21 mm; in experiment [2] (Pseudomonas aeruginosa, P. aeruginosa Pa6, +Fe agar, 50 μL of 0.1 mM solution, 37° C., 24 hours, read-out: Diameter of growth inhibition zones), 0 mm; in experiment [7] (+Fe agar), 0 mm; in experiment [7] (−Fe agar) it was 19 mm; in experiment [3] (+Fe agar), 0 mm; in experiment [3] (−Fe agar) it was 16 mm. Besides, the “activity against clinical isolate Pa6 (agar diffusion, in words)” value in experiment [2] is listed as “no activity”. Besides, the MIC in experiment [6] was 0.05 to 0.39 µM (≈ 0.0647 to 0.505 µg/mL).

In the case of `CC(=O)Oc1cccc(C(=O)NCCCC(CCCNC(=O)c2cccc(OC(C)=O)c2OC(C)=O)(CCCNC(=O)c2cccc(OC(C)=O)c2OC(C)=O)NC(=O)CCC(=O)NC(C(=O)NC2C(=O)N3C2SC(C)(C)C3C(=O)O)c2ccc(O)cc2)c1OC(C)=O` (stereo not shown) [Compound 11], the “Diameter of growth inhibition zones” value in experiment [1] (+Fe agar, 50 μL of 0.2 mM solution, 37° C., 24 hours) is 13P; in experiment [2] (setting [10]), 0 mm; in experiment [4] (50 μL of 0.2 mM solution) it was 14p. Moreover, the zone of inhibition at 200 µM in experiment [1] (setting [9]) was 26 mm; in experiment [2] (setting [11]), 0 mm; in experiment [7] (+Fe agar), 0 mm; in experiment [7] (−Fe agar), 21 mm; in experiment [3] (+Fe agar), 0 mm; in experiment [3] (−Fe agar) it was 19 mm. The “activity against clinical isolate Pa6 (agar diffusion, in words)” value in experiment [2] was “no activity”. The MIC in experiment [6] is 0.05 to 0.39 µM (≈ 0.0655 to 0.511 µg/mL).

Source of the values: patent US9302012B2, “Anti-bacterial siderophore-aminopenicillin conjugates” (University of Notre Dame Du Lac, priority 2012, dated 2016).
